Assay results from US9073863B2, “Cyanoquinoline compounds having activity in correcting mutant-CFTR processing and increasing ion transport and uses thereof” (The Regents of the University of California, priority 2011, dated 2015).

What was measured:
Assay type in all cases: cell-based
G551D-CFTR [1] = biological target: T1, G551D-CFTR (Homo sapiens, UniProt P13569, G551D); test: Short-circuit current in FRT cells expressing G551D-CFTR; conditions: in the presence of forskolin, vs genistein
T1 construct: expressed in transfected cells; host or cells: Fischer rat thyroid (FRT) epithelial cells, stably transfected
T1 sequence (P13569 whole entry G551D): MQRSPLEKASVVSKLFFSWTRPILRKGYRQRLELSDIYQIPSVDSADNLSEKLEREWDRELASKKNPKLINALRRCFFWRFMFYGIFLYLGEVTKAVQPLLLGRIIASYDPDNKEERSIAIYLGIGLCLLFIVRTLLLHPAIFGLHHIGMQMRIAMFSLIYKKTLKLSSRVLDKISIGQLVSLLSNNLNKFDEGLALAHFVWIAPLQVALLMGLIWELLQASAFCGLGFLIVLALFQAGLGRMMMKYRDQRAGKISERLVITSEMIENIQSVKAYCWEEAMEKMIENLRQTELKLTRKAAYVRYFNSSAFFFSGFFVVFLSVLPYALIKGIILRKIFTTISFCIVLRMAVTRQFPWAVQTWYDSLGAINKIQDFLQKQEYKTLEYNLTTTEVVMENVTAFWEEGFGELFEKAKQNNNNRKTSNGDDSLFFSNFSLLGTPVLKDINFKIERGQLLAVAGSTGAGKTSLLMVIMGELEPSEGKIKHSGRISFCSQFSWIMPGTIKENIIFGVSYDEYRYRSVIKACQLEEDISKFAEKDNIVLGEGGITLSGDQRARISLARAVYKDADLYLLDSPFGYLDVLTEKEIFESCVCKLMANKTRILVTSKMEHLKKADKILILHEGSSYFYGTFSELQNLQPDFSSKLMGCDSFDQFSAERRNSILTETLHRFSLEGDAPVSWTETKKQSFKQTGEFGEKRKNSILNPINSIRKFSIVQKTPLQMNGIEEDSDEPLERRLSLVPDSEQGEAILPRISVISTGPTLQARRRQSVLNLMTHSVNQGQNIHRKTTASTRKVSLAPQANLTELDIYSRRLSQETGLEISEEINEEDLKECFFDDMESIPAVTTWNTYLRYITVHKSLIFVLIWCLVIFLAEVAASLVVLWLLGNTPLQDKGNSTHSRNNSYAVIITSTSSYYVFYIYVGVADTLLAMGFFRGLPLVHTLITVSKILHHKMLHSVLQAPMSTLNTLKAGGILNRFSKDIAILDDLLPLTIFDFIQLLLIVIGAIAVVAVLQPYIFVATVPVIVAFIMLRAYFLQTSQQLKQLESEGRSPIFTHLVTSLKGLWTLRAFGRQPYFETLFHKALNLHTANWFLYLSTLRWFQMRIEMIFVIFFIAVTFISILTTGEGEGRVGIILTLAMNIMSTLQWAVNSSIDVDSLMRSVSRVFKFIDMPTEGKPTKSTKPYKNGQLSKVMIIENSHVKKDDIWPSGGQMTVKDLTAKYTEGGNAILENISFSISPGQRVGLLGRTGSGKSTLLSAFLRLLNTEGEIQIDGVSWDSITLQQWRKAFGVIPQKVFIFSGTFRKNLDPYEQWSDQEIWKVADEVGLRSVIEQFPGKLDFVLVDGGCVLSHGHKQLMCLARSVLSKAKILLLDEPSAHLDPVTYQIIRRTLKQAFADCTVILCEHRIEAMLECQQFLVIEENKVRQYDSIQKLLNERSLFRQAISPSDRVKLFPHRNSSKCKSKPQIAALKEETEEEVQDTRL
Experimental: (§1) Potentiator studies were also performed in FRT cells expressing G551D-CFTR, a CF-causing CFTR mutation with defective channel gating but not plasma membrane trafficking. […] Where indicated, genistein (100 μM) and CFTRinh-172 (10 μM) were added. Graphs are representative of 3 sets of measurements. […] Measurements were made in the presence of 20 μM forskolin.

ΔF508-CFTR [2] = biological target: T2, ΔF508-CFTR (Homo sapiens, UniProt P13569, DEL508-508); test: Potentiator assay by YFP/iodide fluorescence quenching in ΔF508-CFTR expressing A549 cells
T2 construct: expressed in transfected cells; host or cells: Fischer rat thyroid (FRT) epithelial cells, stably transfected
T2 sequence (P13569 with tags, fused parts or gaps DEL508-508): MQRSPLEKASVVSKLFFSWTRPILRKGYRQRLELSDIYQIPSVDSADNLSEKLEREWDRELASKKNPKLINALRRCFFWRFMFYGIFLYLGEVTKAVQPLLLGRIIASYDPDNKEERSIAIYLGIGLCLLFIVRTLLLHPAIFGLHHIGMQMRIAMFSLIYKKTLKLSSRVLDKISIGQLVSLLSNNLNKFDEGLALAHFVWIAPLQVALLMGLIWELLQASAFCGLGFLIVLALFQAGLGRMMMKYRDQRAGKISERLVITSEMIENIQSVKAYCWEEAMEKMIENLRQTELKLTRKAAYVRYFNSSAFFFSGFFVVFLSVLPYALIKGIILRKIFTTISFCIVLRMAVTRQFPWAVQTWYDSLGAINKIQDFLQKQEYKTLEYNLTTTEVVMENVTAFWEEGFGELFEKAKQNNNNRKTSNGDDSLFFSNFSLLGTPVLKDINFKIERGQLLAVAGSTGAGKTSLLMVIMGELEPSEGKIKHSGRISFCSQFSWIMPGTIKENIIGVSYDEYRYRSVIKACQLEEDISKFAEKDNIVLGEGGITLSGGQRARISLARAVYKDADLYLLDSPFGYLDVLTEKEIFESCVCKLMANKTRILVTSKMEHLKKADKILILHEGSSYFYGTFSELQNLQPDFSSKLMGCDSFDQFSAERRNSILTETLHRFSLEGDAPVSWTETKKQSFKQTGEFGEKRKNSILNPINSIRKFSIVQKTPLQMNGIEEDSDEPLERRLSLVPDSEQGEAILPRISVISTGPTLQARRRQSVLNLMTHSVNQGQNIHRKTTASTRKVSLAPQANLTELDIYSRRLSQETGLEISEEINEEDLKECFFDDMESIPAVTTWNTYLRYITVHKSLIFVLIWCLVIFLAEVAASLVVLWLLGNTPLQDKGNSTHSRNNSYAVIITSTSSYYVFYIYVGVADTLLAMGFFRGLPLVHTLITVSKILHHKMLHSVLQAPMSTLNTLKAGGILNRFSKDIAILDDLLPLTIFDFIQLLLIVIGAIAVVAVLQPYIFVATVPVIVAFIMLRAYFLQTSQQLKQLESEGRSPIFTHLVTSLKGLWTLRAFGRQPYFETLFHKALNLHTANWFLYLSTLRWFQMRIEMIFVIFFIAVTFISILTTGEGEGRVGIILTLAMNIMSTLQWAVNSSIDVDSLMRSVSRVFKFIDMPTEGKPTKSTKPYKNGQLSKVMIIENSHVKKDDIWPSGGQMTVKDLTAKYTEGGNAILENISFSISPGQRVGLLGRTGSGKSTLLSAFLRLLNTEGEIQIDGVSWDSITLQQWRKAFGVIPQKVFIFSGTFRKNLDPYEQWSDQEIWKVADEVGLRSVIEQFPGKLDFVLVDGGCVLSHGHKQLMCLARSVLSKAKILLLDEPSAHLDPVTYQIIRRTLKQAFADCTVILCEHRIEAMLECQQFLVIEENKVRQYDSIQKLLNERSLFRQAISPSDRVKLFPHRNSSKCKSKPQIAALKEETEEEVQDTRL
Experimental: (§2) Representative fluorescence quenching curves (FIG. 6B (top)) shown with deduced Compound 22 and genistein concentration dependence (FIG. 6B (bottom), SEM, n=4). Fluorescence plate reader assays in FIG. 6B confirmed that Compound 22 activated G551D-CFTR in the presence of forskolin, with lower maximal efficacy than genistein.
(§3) To test whether Compound 22 is active in a different cell background, potentiator and corrector assays were performed in ΔF508-CFTR transfected A549 cells, which are of human lung epithelial origin. […] Apparent EC50 for Compound 22 potentiator activity was about 8 μM (FIG. 6B). […] (FIG. 6C, top). Compound 22 was further tested for corrector activity in A549 cells under the low-temperature synergy condition; however, DF508-CFTR was fully activated by forskolin ([…]) and genistein ([…]) in this cell model (FIG. 6C, bottom).

ΔF508-CFTR [3] = biological target: T2, ΔF508-CFTR; test: Corrector assay by YFP/iodide fluorescence quenching in ΔF508-CFTR expressing A549 cells; conditions: 24 h at 37° C.
Experimental: FIGS. 6A and 6B show graphs of Compound 22 activity in G551D-CFTR expressing FRT cells and DF508-CFTR expressing […] cells, according to embodiments of the present disclosure. […] (top) or 27° C. (bottom) for 24 h prior to iodide influx measurement, according to embodiments of the present disclosure. Graphs are representative of 3 sets of measurements.
as §3

ΔF508-CFTR [4] = biological target: T2, ΔF508-CFTR; test: CFTR immunoblot of ΔF508-CFTR expressing FRT cells; conditions: 24 h at 37° C.
Experimental: CFTR Immunoblot. DF508-CFTR expressing FRT cells grown on 6-well plates were treated with Corr-4a ([…]), Compound 22 […] or negative control at 37° C. for 24 h. After treatment, cells were washed with PBS and lysed in 20 mM Hepes (pH 7), 150 mM NaCl, 1 mM EGTA and 1% Igepal containing Complete Protease Inhibitor Cocktail (Roche). After pre-clearing, lysates were subjected to SDS-PAGE and analyzed by immunoblot. Proteins were immunodetected using a mouse monoclonal anti-CFTR antibody (M3A7, Millipore) followed by HRP-conjugated anti-mouse IgG, and visualized by chemiluminescence (ECL Plus, Amersham).
The action of Compound 22 as corrector of defective ΔF508-CFTR cellular processing was verified by CFTR immunoblot analysis (FIG. 4C). Wildtype CFTR was detected as a strong band at 170 kDa (band C), corresponding to complex glycosylated CFTR. […] Band B, which corresponds to core-glycosylated ΔF508-CFTR, was also seen.

ΔF508-CFTR [5] = biological target: T2, ΔF508-CFTR; test: Short-circuit current (apical membrane chloride current) corrector assay in ΔF508-CFTR expressing FRT cells
Experimental: Short-circuit current measurements. ΔF508-CFTR-expressing FRT cells were cultured on Snapwell inserts for 7-9 days. For corrector testing, test compounds were incubated with FRT cells for 18-24 h at 37° C. prior to measurements. For potentiator testing, the FRT cells were incubated for 18-24 h at 27° C. prior to measurements. The basolateral solution contained 130 mM NaCl, 2.7 mM KCl, 1.5 mM KH2PO4, 1 mM CaCl2, 0.5 mM MgCl2, 10 mM glucose, and 10 mM Na-HEPES (pH 7.3). In the apical bathing solution, 65 mM NaCl was replaced by Na gluconate, and CaCl2 was increased to 2 mM. Solutions were bubbled with air and maintained at 37° C. The basolateral membrane was permeabilized with 250 μg/ml amphotericin B. Hemichambers were connected to a DVC-1000 voltage clamp (World Precision Instruments Inc.) via Ag/AgCl electrodes and 1 M KCl agar bridges for recording of short-circuit current.
Short-circuit current was measured as a definitive electrophysiological assay to verify Compound 22 corrector action. Apical membrane chloride current was measured in ΔF508-CFTR expressing FRT cells after basolateral membrane permeabilization and in the presence of a transepithelial chloride gradient (apical, 65 mM; basolateral, 130 mM). In FIG. 3C, incubation with Corr-4a (5 μM) is shown as reference (right). Forskolin (20 μM), genistein (50 μM) and CFTRinh-172 (10 μM) were added where indicated. […] FIG. 3D summarizes Compound 22 concentration dependence data from short-circuit current studies. […]
Short-circuit current was measured in an electrophysiology assay to verify corrector activity. Apical membrane chloride current was measured in ΔF508-CFTR expressing FRT cells after basolateral membrane permeabilization and in the presence of a transepithelial chloride gradient. […] To assay potentiator activity apical membrane chloride current was measured after low-temperature rescue, in response to CP-3 addition. CP-3 concentration-dependent increases in apical membrane current were measured in the presence of 5 μM forskolin. […]

G551D-CFTR [6] = biological target: T1, G551D-CFTR; test: Plate reader assay of G551D-CFTR chloride conductance in FRT cells; conditions: in the presence of 20 μM forskolin
Experimental: as §1, §2

potentiator action on G551D-CFTR chloride current (G551D-CFTR [1]): weak potentiator | potentiator activity in A549 cells, in words (ΔF508-CFTR [2]): comparable to that in FRT cells | EC50 (ΔF508-CFTR [2]; A549 cells, read-out: Apparent EC50 for potentiator activity): ~8 µM | complex glycosylated CFTR (band C) in immunoblot (ΔF508-CFTR [4]): band C was visualized | maximum efficacy of G551D-CFTR activation (G551D-CFTR [6]): lower than that of genistein | EC50 (G551D-CFTR [6]; read-out: Apparent EC50 for activation of G551-CFTR): ~5 µM
SMILES: COc1cccc(C(=O)NCCNc2nc3cc(C)cc(C)c3cc2C#N)c1 [Compound 22, N-(2-((3-Cyano-5,7-dimethylquinolin-2-yl)amino)ethyl)-3-methoxybenzamide]
corrector activity in A549 cells, in words (ΔF508-CFTR [3]): little corrector activity compared to Corr-4a | increase in apical membrane current (corrector) (ΔF508-CFTR [5]; 5 and 10 μM, 18-24 h incubation): comparable to that conferred by 5 μM Corr-4a | corrector and potentiator maximum efficacy (ΔF508-CFTR [5]; electrophysiological analysis): comparable to those of the bithiazole Corr-4a and the flavone genistein
